Data from patent US20250154152A1, “INHIBITORS OF NAEGLERIA FOWLERI” (Wisconsin Alumni Research Foundation, priority 2023, published 2025).

Tested on: N. fowleri strain Nf69 (ATCC 30215) trophozoites
Assay: Determination of EC50 values against Naegleria fowleri (growth inhibition, CellTiter Glo, 48 h)
Type: cell-based
Conditions: ATCC30215, N. fowleri Nf69 trophozoites, 48 h culture, 37° C., CellTiter Glo luminescence, read-out: EC50 uM against N. fowleri
Method: N. fowleri strain Nf69 (ATCC 30215) trophozoites were cultured axenically. Amoeba were seeded at […] in 100 μL of the indicated medium in white TC-treated 96-well plates (Thermo Scientific Nunc Microwell 136101). Cells were seeded into Nelson's Complete Media (NCM, 0.17% liver infusion broth (BD Difco, Franklin Lakes, NJ), 0.17% glucose, 0.012% sodium chloride, 0.0136% potassium phosphate monobasic, 0.0142% sodium phosphate dibasic, 0.0004% calcium chloride, 0.0002% magnesium sulfate, 10% heat-inactivated fetal bovine serum (FBS), 1% penicillin-streptomycin) at 37° C. in 96-well tissue culture plates. Vehicle or compound at concentrations initially ranging from 20 to 0.375 μM were added to cells, followed by culture for 48 h (37° C., 5% CO2). Plates were equilibrated to rt for 15 min and CellTiter Glo reagent was added followed by orbital shaking for 2 min. After an additional incubation (rt, 10 min), luminescence was scored on a BioTek Synergy H1 microplate reader. Luminescence values were used to calculate percent cell growth inhibition (based on controls) for each concentration of compound tested. Averages of triplicates were calculated and fit to dose-response curves for the determination of EC50 values, using Prism 9.0 (GraphPad Software, San Diego, CA). […] Other controls included media alone, cells and media, and vehicle and media. For very potent compounds, concentration of reagent in the dose-response assays were reduced to provide an appropriate range for EC50 value resolution.
Compounds of the present technology were tested for growth inhibition of N. fowleri per General Procedure 13, above.

Row | Structure (SMILES) | EC50 [µM]
1 | CN1CCN(C)[C@H]2c3nc4ccccc4c(=O)n3CC[C@H]21 (racemic) [cis-5y, (±)-(4aR,13bR)-1,4-dimethyl-1,2,3,4,4a,5,6,13b-octahydro-8H-pyrazino[2′,3′:3,4]pyrido[2,1-b]quinazolin-8-one] | > 10
2 | CCN1CCC[C@H]2c3nc4ccccc4c(=O)n3CC[C@H]21 (racemic) [cis-5z, (±)-(4aR,13bR)-4-ethyl-1,2,3,4,4a,5,6,13b-octahydro-8H-[1,6]naphthyridino[5,6-b]quinazolin-8-one] | > 10
3 | Cc1ccc(-c2ccc3nc4n(c(=O)c3c2)CC[C@@H]2[C@H]4CCCN2C)cn1 (racemic) [cis-9a] | > 10
4 | CN1CCC[C@H]2c3nc4cc(-c5ccccc5)c(Cl)cc4c(=O)n3CC[C@H]21 (racemic) [cis-9b, (±)-(4aR,13bR)-10-chloro-4-methyl-11-phenyl-1,2,3,4,4a,5,6,13b-octahydro-8H-[1,6]naphthyridino[5,6-b]quinazolin-8-one] | 1 to 10
5 | COc1ccc2c(=O)n3c(nc2c1)[C@@H]1CCCN(C)[C@@H]1CC3 (racemic) [cis-50, (±)-(4aR,13bR)-11-methoxy-4-methyl-1,2,3,4,4a,5,6,13b-octahydro-8H-[1,6]naphthyridino[5,6-b]quinazolin-8-one] | 1 to 10
6 | CN1CCC[C@@H]2c3nc4ccccc4c(=O)n3CC[C@H]21 (racemic) [trans-5a, (±)-(4aR,13bS)-4-methyl-1,2,3,4,4a,5,6,13b-octahydro-8H-[1,6]naphthyridino[5,6-b]quinazolin-8-one] | > 10
7 | O=c1c2ccccc2nc2n1CC[C@@H]1[C@@H]2CCCN1Cc1ccccc1 (racemic) [trans-5aa, (±)-(4aR,13bS)-4-benzyl-1,2,3,4,4a,5,6,13b-octahydro-8H-[1,6]naphthyridino[5,6-b]quinazolin-8-one] | > 10
8 | Cc1cccc2nc3n(c(=O)c12)CC[C@@H]1[C@@H]3CCCN1C (racemic) [trans-5b, (±)-(4aR,13bS)-4,9-dimethyl-1,2,3,4,4a,5,6,13b-octahydro-8H-[1,6]naphthyridino[5,6-b]quinazolin-8-one] | > 10
9 | CN1CCC[C@@H]2c3nc4cccc(Cl)c4c(=O)n3CC[C@H]21 (racemic) [trans-5c, (±)-(4aR,13bS)-9-chloro-4-methyl-1,2,3,4,4a,5,6,13b-octahydro-8H-[1,6]naphthyridino[5,6-b]quinazolin-8-one] | > 10
10 | CN1CCC[C@@H]2c3nc4ccc(Cl)cc4c(=O)n3CC[C@H]21 (racemic) [trans-5d, (±)-(4aR,13bS)-10-chloro-4-methyl-1,2,3,4,4a,5,6,13b-octahydro-8H-[1,6]naphthyridino[5,6-b]quinazolin-8-one] | 0.1 to 1
11 | CN1CCC[C@@H]2c3nc4ccc(Br)cc4c(=O)n3CC[C@H]21 (racemic) [trans-5e, (±)-(4aR,13bS)-10-bromo-4-methyl-1,2,3,4,4a,5,6,13b-octahydro-8H-[1,6]naphthyridino[5,6-b]quinazolin-8-one] | 1 to 10
12 | CN1CCC[C@@H]2c3nc4ccc(F)cc4c(=O)n3CC[C@H]21 (racemic) [trans-5f, (±)-(4aR,13bS)-10-fluoro-4-methyl-1,2,3,4,4a,5,6,13b-octahydro-8H-[1,6]naphthyridino[5,6-b]quinazolin-8-one] | > 10
13 | COc1ccc2nc3n(c(=O)c2c1)CC[C@@H]1[C@@H]3CCCN1C (racemic) [trans-5g, (±)-(4aR,13bS)-10-methoxy-4-methyl-1,2,3,4,4a,5,6,13b-octahydro-8H-[1,6]naphthyridino[5,6-b]quinazolin-8-one] | 1 to 10
14 | COc1cc2nc3n(c(=O)c2cc1Cl)CC[C@@H]1[C@@H]3CCCN1C (racemic) [trans-5gg, (±)-(4aR,13bS)-10-chloro-11-methoxy-4-methyl-1,2,3,4,4a,5,6,13b-octahydro-8H-[1,6]naphthyridino[5,6-b]quinazolin-8-one] | 0.1 to 1
15 | Cc1ccc2nc3n(c(=O)c2c1)CC[C@@H]1[C@@H]3CCCN1C (racemic) [trans-5h, (±)-(4aR,13bS)-4,10-dimethyl-1,2,3,4,4a,5,6,13b-octahydro-8H-[1,6]naphthyridino[5,6-b]quinazolin-8-one] | 1 to 10
16 | CN1CCC[C@@H]2c3nc4ccc(C#N)cc4c(=O)n3CC[C@H]21 (racemic) [trans-5i, (±)-(4aR,13bS)-4-methyl-8-oxo-2,3,4,4a,5,6,8,13b-octahydro-1H-[1,6]naphthyridino[5,6-b]quinazoline-10-carbonitrile] | 0.1 to 1

Row | Structure (SMILES) | EC50 [µM]
17 | CN1CCC[C@@H]2c3nc4ccc(C(F)(F)F)cc4c(=O)n3CC[C@H]21 (racemic) [trans-5j, (±)-(4aR,13bS)-4-methyl-10-(trifluoromethyl)-1,2,3,4,4a,5,6,13b-octahydro-8H-[1,6]naphthyridino[5,6-b]quinazolin-8-one] | 1 to 10
18 | CN1CCC[C@@H]2c3nc4cc(Cl)ccc4c(=O)n3CC[C@H]21 (racemic) [trans-5k, (±)-(4aR,13bS)-11-chloro-4-methyl-1,2,3,4,4a,5,6,13b-octahydro-8H-[1,6]naphthyridino[5,6-b]quinazolin-8-one] | 1 to 10
19 | CN1CCC[C@@H]2c3nc4cc(Br)ccc4c(=O)n3CC[C@H]21 (racemic) [trans-5l, (±)-(4aR,13bS)-11-bromo-4-methyl-1,2,3,4,4a,5,6,13b-octahydro-8H-[1,6]naphthyridino[5,6-b]quinazolin-8-one] | 1 to 10
20 | CN1CCC[C@@H]2c3nc4cc(F)ccc4c(=O)n3CC[C@H]21 (racemic) [trans-5m, (±)-(4aR,13bS)-11-fluoro-4-methyl-1,2,3,4,4a,5,6,13b-octahydro-8H-[1,6]naphthyridino[5,6-b]quinazolin-8-one] | > 10
21 | CN1CCC[C@@H]2c3nc4cc(C(F)(F)F)ccc4c(=O)n3CC[C@H]21 (racemic) [trans-5n, (±)-(4aR,13bS)-4-methyl-11-(trifluoromethyl)-1,2,3,4,4a,5,6,13b-octahydro-8H-[1,6]naphthyridino[5,6-b]quinazolin-8-one] | 0.1 to 1
22 | CN1CCC[C@@H]2c3nc4cnccc4c(=O)n3CC[C@H]21 (racemic) [trans-5p, (±)-(4aR,13bS)-4-methyl-1,2,3,4,4a,5,6,13b-octahydro-8H-pyrido[3′,4′:4,5]pyrimido[2,1-f][1,6]naphthyridin-8-one] | > 10
23 | CN1CCC[C@@H]2c3nc4cc(Cl)c(Cl)cc4c(=O)n3CC[C@H]21 (racemic) [trans-5q, (±)-(4aR,13bS)-10,11-dichloro-4-methyl-1,2,3,4,4a,5,6,13b-octahydro-8H-[1,6]naphthyridino[5,6-b]quinazolin-8-one] | 0.1 to 1
24 | COc1cc2nc3n(c(=O)c2cc1OC)CC[C@@H]1[C@@H]3CCCN1C (racemic) [trans-5r, (±)-(4aR,13bS)-10,11-dimethoxy-4-methyl-1,2,3,4,4a,5,6,13b-octahydro-8H-[1,6]naphthyridino[5,6-b]quinazolin-8-one] | > 10
25 | CN1CCC[C@@H]2c3nc4cc(Cl)c(C(F)(F)F)cc4c(=O)n3CC[C@H]21 (racemic) [trans-5s, (±)-(4aR,13bS)-11-chloro-4-methyl-10-(trifluoromethyl)-1,2,3,4,4a,5,6,13b-octahydro-8H-[1,6]naphthyridino[5,6-b]quinazolin-8-one] | 0.1 to 1
26 | COc1cc(Cl)cc2c(=O)n3c(nc12)[C@H]1CCCN(C)[C@@H]1CC3 (racemic) [trans-5t, (±)-(4aR,13bS)-10-chloro-12-methoxy-4-methyl-1,2,3,4,4a,5,6,13b-octahydro-8H-[1,6]naphthyridino[5,6-b]quinazolin-8-one] | > 10
27 | COc1cccc2c(=O)n3c(nc12)[C@H]1CCCN(C)[C@@H]1CC3 (racemic) [trans-5u, (±)-(4aR,13bS)-12-methoxy-4-methyl-1,2,3,4,4a,5,6,13b-octahydro-8H-[1,6]naphthyridino[5,6-b]quinazolin-8-one] | > 10
28 | CN1CCO[C@@H]2c3nc4ccccc4c(=O)n3CC[C@H]21 (racemic) [trans-5v, (±)-(4aR,13bS)-4-methyl-3,4,4a,5,6,13b-hexahydro-[1,4]oxazino[2′,3′:3,4]pyrido[2,1-b]quinazolin-8(2H)-one] | > 10
29 | CN1CCO[C@@H]2c3nc4ccc(Cl)cc4c(=O)n3CC[C@H]21 (racemic) [trans-5w, (±)-(4aR,13bS)-10-chloro-4-methyl-3,4,4a,5,6,13b-hexahydro-[1,4]oxazino[2′,3′:3,4]pyrido[2,1-b]quinazolin-8(2H)-one] | > 10
30 | CN1CCO[C@@H]2c3nc4ccc(C(F)(F)F)cc4c(=O)n3CC[C@H]21 (racemic) [trans-5x, (±)-(4aR,13bS)-4-methyl-10-(trifluoromethyl)-3,4,4a,5,6,13b-hexahydro-[1,4]oxazino[2′,3′:3,4]pyrido[2,1-b]quinazolin-8(2H)-one] | > 10
31 | CCN1CCC[C@@H]2c3nc4ccccc4c(=O)n3CC[C@H]21 (racemic) [trans-5z, (±)-(4aR,13bS)-4-ethyl-1,2,3,4,4a,5,6,13b-octahydro-8H-[1,6]naphthyridino[5,6-b]quinazolin-8-one] | > 10
